Assay results taken from patent publication US9629816B2, “Small molecule therapeutic compounds targeting thioesterase deficiency disorders and methods of using the same” (The United States of America, as represented by the …, priority 2011, dated 2017).
Several values for one entry are separate records, joined by “and”; a condition that tells them apart may be missing. Identical values can stand only once.

Tests used:
[1] = Cleavage of thioester linkage in [14C]palmitoyl-CoA, release of free [14C]palmitate (TLC, autoradiography); type: biochemical; settings: varying concentrations; various incubation times; [14C]palmitate production
Description: It has been reported that thioester linkages in s-acylated proteins are labile, and that compounds having nucleophilic properties are able to disrupt such linkages. Thus, the ability of derivatives of hydroxylamine to disrupt thioester linkages in s-acylated proteins was tested. Twelve HA-derivatives, described in Table 1, were screened for their ability to cleave thioester linkage in [^14C]palmitoyl˜CoA (a model thioester substrate of PPT1), mediating the release of free [^14C]palmitic acid, a process depicted in FIG. 2. […] [^14C]-palmitoyl-CoA was incubated for 1 hour with each of the HA derivatives and the reaction mixture was resolved by thin layer chromatography (TLC) followed by autoradiography. The free [^14C]-palmitate bands were visible and quantitated by densitometric analysis of the bands.

INCL fibroblasts = assay: MTT viability of cultured INCL fibroblasts; type: cell-based, human; settings: 48 hours of treatment; viability as percent of untreated control (FIG. 4A-C)
Description: Ten out of the twelve HA-derivative compounds listed in Table 1 were tested to determine whether they adversely affected the viability of cultured cells from INCL patients. […] Briefly, following treatment with HA-derivatives INCL cells were incubated with Thiazolyl Blue Tetrazolium […] for 4 hours at 37° C. Formazan crystals thus formed were dissolved in acidified isopropanol and absorption was measured at 570 nm. Viability was expressed as percent of untreated control.
Briefly, normal fibroblasts (GM 00498) were obtained from the Coriell Institute of Medical Research, USA. PPT1-deficient INCL fibroblasts were isolated from skin biopsy samples of INCL patients admitted to an ongoing clinical protocol (#01-CH-0086) approved by the Institutional Review Board (IRB) of the National Institute of Child Health and Human Development (NICHD) at the National Institute of Health (NIH). […] The fibroblasts were cultured in the presence or absence of varying concentrations of each of the HA-derivatives for 48 hours, after which the viability of the cells was determined using the MTT-Cell Viability Assay by T. Mossman, (Rapid colorimetric assay for cellular growth and survival. J. Immunol. Method. 65 (1983) 55-63).

INCL lymphoblasts = assay: Depletion of [35S]cysteine-labeled lipid thioesters / hydrolysis of S-acylated proteins in PPT1-deficient lymphoblasts; type: cell-based, human; settings: lymphoblasts of nine NCL patients; 48 hours vs untreated cells (FIG. 8)
Description: Thus, this derivative was chosen for more extensive study of its ability to hydrolyze […] proteins, and to deplete lipid-extractable [^35S]cysteine thioesters from fibroblasts and lymphoblasts. INCL fibroblasts were obtained and cultured as described in Example 4. The cells were then labeled with [^35S]cysteine. Briefly, following incubation for six hours in medium lacking serum and cysteine/cystine, the cells were washed and then re-cultured for varying lengths of time in medium containing NtBuHA, with a change of medium every 12 hours. As controls, [^35S]cysteine-labeled cells were cultured in drug-free medium as well as medium containing 1M HA. Following incubation, cells were washed twice with cold PBS and then centrifuged at 2,250 g at 4° C. for 5 minutes. Lipid thioesters were then extracted from the cells and subject to analysis by high-performance thin layer chromatography. Briefly, the extracted fatty acyl esters were dissolved in chloroform:methanol (1:1) and an aliquot applied to a TLC plate and resolved using a mixture of chloroform:methanol:water (65:25:4). The plates were then dried and autoradiographs obtained.
The ability of NtBuHA to deplete [^35S]cysteine-thioester containing compounds was tested using [^35S]cysteine-labeled, immortalized lymphoblasts. […]

PPT1-KO mice [2] = assay: NeuN immunohistochemistry of cortical tissue sections of PPT1-KO mice; type: in vivo, mouse; settings: brain sections vs untreated PPT1-KO mice (FIG. 18)
Description: The NtBuHA treated and untreated mouse brain tissues were fixed in 3.7% paraformaldehyde, embedded in paraffin and processed for histological analyses. Briefly, after being treated with xylene and then successively with different concentrations of ethanol in phosphate buffered saline (PBS) (100% to 0%), tissue sections were blocked with 5% BSA in PBS. Sections were then probed overnight with anti-synaptophysin (Abcam) and anti-GFAP followed by incubation with alexa fluor 594 conjugated anti-rabbit and anti-mouse secondary antibodies (Invitrogen). Sections were mounted with DAPI containing mounting medium and imaged using Zeiss LSM 510 Inverted Meta confocal microscope (Carl Zeiss).
It has been reported that postmortem brain tissues from INCL patients as well as those from PPT1-KO mice manifest high levels of oxidative stress, which induces neuronal apoptosis contributing to neuropathology. […] Accordingly, a terminal deoxynucleotidyl transferase dUTP nick end labeling (TUNEL) assay was performed using cortical tissue sections from wild-type, untreated PPT1-KO and NtBuHA-treated PPT1-KO mice to determine the level of apoptosis. […] Quantitative analysis of the NeuN-positive cells in brain tissues from wild-type, untreated and NtBuHA-treated PPT1-KO mice (FIG. 18D) confirmed the visual assessment.

PPT1-KO mice [3] = assay: Blood methemoglobin level in PPT1-KO mice; type: in vivo, mouse
Description: The ability of the HA-derivative NtBuHA to increase methemoglobin levels was tested by placing PPT1-KO mice on a diet containing NtBuHA. After three months on the diet, the level of methemoglobin in the animal's blood was measured.

SMILES: CC(C)(C)NO [NtBuHA, N-(tert-Butyl)hydroxylamine]
- dose- and time-dependence of thioester linkage cleavage in [14C]palmitoyl-CoA [1]: cleaved the thioester linkage in a dose-dependent and time-dependent manner
- toxicity / viability of INCL cells (MTT) (INCL fibroblasts): non-toxic
- intensity of [35S]cysteine-labeled lipid bands (INCL lymphoblasts): clear reduction in the intensity
- NeuN-positive cells (PPT1-KO mice [2]): modestly higher level of NeuN-positive cells
- % Methemoglobin (PPT1-KO mice [3]; individual NtBuHA-treated PPT1-KO mice, three months on diet, blood): 0% and 0.5% and 0.7% and 0.6%
- % Methemoglobin, Mean (PPT1-KO mice [3]; mean of 4 NtBuHA-treated PPT1-KO mice, three months on diet, blood): 0.45%
- effect on methemoglobin levels (PPT1-KO mice [3]; treatment up to three months): does not increase methemoglobin levels
